Source: ChEMBL document CHEMBL1201862, “PubChem BioAssay data set” (2004)
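Cultured in 96-well plates, cells were exposed to test compound for 48 hours across five concentrations. The concentration for 50% growth inhibition is given as GI50.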 Activity calls are given as the source filed them. No stated cut-off is given here; in the data, active = GI50 up to about 1.1 µM and inactive = higher. Where a SMILES comes first, the peptide text is derived from it. [ ]: non-standard residue; d: D form. Phe(F5) = N[CH](Cc1c(F)c(F)c(F)c(F)c1F)C(=O)O

Columns and labels:
Experiment in all cases: inhibition of tumour cell growth, NCI panel, 48 h
IGROV-1 = tested on: IGROV-1
MDA-MB-231 = tested on: MDA-MB-231
EKVX = tested on: EKVX
HOP-92 = tested on: HOP-92
NCI-H23 = tested on: NCI-H23
T47D = tested on: T47D
SK-MEL-5 = tested on: SK-MEL-5
PC-3 = tested on: PC-3
OVCAR-8 = tested on: OVCAR-8
CCRF-CEM = tested on: CCRF-CEM
RXF 393 = tested on: RXF 393
ACHN = tested on: ACHN
SF-268 = tested on: SF-268
HL-60 = tested on: HL-60
SF-539 = tested on: SF-539
KM-20L2 = tested on: KM-20L2
Malme-3M = tested on: Malme-3M
NCI-H522 = tested on: NCI-H522
Hs-578T = tested on: Hs-578T
HCT-116 = tested on: HCT-116

SMILES: O=C(CNc1ccc2c(=S)c3ccccc3[nH]c2c1)Nc1ccccc1-c1ccccc1NC(=O)CNc1ccc2c(=S)c3ccccc3[nH]c2c1
- GI50 (IGROV-1): 20.2 µM (inactive)
- GI50 (MDA-MB-231): 22.7 µM (inactive)
- GI50 (EKVX): 24.4 µM (inactive)
- GI50 (HOP-92): 23 µM (inactive)
- GI50 (NCI-H23): 13.8 µM (inactive)
- GI50 (T47D): 15.6 µM (inactive)
- GI50 (SK-MEL-5): 15.2 µM (inactive)
- GI50 (PC-3): 19.4 µM (inactive)
- GI50 (OVCAR-8): 23.9 µM (inactive)
- GI50 (CCRF-CEM): 2.73 µM (inactive)
- GI50 (RXF 393): 27 µM (inactive)
- GI50 (ACHN): 15.8 µM (inactive)
- GI50 (SF-268): 22 µM (inactive)
- GI50 (HL-60): 2.99 µM (inactive)
- GI50 (SF-539): 24.7 µM (inactive)
- GI50 (KM-20L2): 19.7 µM (inactive)
- GI50 (Malme-3M): 15.7 µM (inactive)
- GI50 (NCI-H522): 6.38 µM (inactive)
- GI50 (Hs-578T): 29.2 µM (inactive)
- GI50 (HCT-116): 18.5 µM (inactive)

SMILES: CC(=O)O.CN1CCN(CN2C(=O)C3C4C=CC(C3C2=O)C2C3C(=O)N(CN5CCN(C)CC5)C(=O)C3C42)CC1 (stereo not drawn)
- GI50 (IGROV-1): 35.5 µM (inactive)
- GI50 (MDA-MB-231): 24.4 µM (inactive)
- GI50 (NCI-H23): 20.7 µM (inactive)
- GI50 (T47D): 30 µM (inactive)
- GI50 (SK-MEL-5): 23.4 µM (inactive)
- GI50 (PC-3): 33.7 µM (inactive)
- GI50 (OVCAR-8): 27.8 µM (inactive)
- GI50 (CCRF-CEM): 18.5 µM (inactive)
- GI50 (RXF 393): 17.7 µM (inactive)
- GI50 (ACHN): 27.6 µM (inactive)
- GI50 (SF-268): 27.5 µM (inactive)
- GI50 (SF-539): 21.1 µM (inactive)
- GI50 (KM-20L2): 20.3 µM (inactive)
- GI50 (Malme-3M): 18.3 µM (inactive)
- GI50 (NCI-H522): 18.6 µM (inactive)
- GI50 (Hs-578T): > 100 µM (inactive)
- GI50 (HCT-116): 16.6 µM (inactive)

SMILES: CCN(CC)CCNc1c2ccccc2nc2cccc([N+](=O)[O-])c12
- GI50 (IGROV-1): 0.0182 µM (active)
- GI50 (MDA-MB-231): 0.00136 µM (active)
- GI50 (EKVX): 0.0177 µM (active)
- GI50 (HOP-92): 0.0146 µM (active)
- GI50 (NCI-H23): 0.00787 µM (active)
- GI50 (T47D): 0.0101 µM (active)
- GI50 (SK-MEL-5): 0.00902 µM (active)
- GI50 (PC-3): 0.00301 µM (active)
- GI50 (OVCAR-8): 0.0177 µM (active)
- GI50 (CCRF-CEM): 0.0462 µM (active)
- GI50 (RXF 393): 0.0176 µM (active)
- GI50 (ACHN): 0.00665 µM (active)
- GI50 (SF-268): 0.012 µM (active)
- GI50 (HL-60): 0.046 µM (active)
- GI50 (SF-539): 0.0224 µM (active)
- GI50 (KM-20L2): 0.0303 µM (active)
- GI50 (Malme-3M): 0.00953 µM (active)
- GI50 (NCI-H522): 0.00434 µM (active)
- GI50 (Hs-578T): 0.017 µM (active)
- GI50 (HCT-116): 0.00676 µM (active)

SMILES: COC(=O)C(CC(C)C)NC(=O)C(Cc1c[nH]cn1)NC(=O)CNC(=O)C(NC(=O)C(C)NC(=O)C(Cc1c[nH]c2ccccc12)NC(=O)C(CCC(=O)O)NC(=O)C(N)Cc1c(F)c(F)c(F)c(F)c1F)C(C)C (stereo not drawn) (H-[Phe(F5)]EWAVGHL-OMe; configuration not given here)
- GI50 (IGROV-1): > 12.5 µM (inactive)
- GI50 (MDA-MB-231): > 12.5 µM (inactive)
- GI50 (EKVX): > 12.5 µM (inactive)
- GI50 (NCI-H23): > 12.5 µM (inactive)
- GI50 (T47D): > 12.5 µM (inactive)
- GI50 (SK-MEL-5): > 12.5 µM (inactive)
- GI50 (PC-3): > 12.5 µM (inactive)
- GI50 (OVCAR-8): > 12.5 µM (inactive)
- GI50 (CCRF-CEM): > 12.5 µM (inactive)
- GI50 (RXF 393): > 12.5 µM (inactive)
- GI50 (ACHN): > 12.5 µM (inactive)
- GI50 (SF-268): > 12.5 µM (inactive)
- GI50 (HL-60): > 12.5 µM (inactive)
- GI50 (SF-539): > 12.5 µM (inactive)
- GI50 (KM-20L2): > 100 µM (inactive)
- GI50 (Malme-3M): > 12.5 µM (inactive)
- GI50 (NCI-H522): > 12.5 µM (inactive)
- GI50 (Hs-578T): > 12.5 µM (inactive)
- GI50 (HCT-116): > 12.5 µM (inactive)

SMILES: O=CN/C=C/c1cc(O)ccc1O [ERBSTATIN]
- GI50 (IGROV-1): 26.2 µM (inactive)
- GI50 (EKVX): 18.6 µM (inactive)
- GI50 (HOP-92): 11.6 µM (inactive)
- GI50 (NCI-H23): 18.8 µM (inactive)
- GI50 (SK-MEL-5): 18.7 µM (inactive)
- GI50 (PC-3): > 100 µM (inactive)
- GI50 (OVCAR-8): 17.8 µM (inactive)
- GI50 (CCRF-CEM): 4.11 µM (inactive)
- GI50 (RXF 393): 13 µM (inactive)
- GI50 (ACHN): 14.8 µM (inactive)
- GI50 (SF-268): 17.2 µM (inactive)
- GI50 (HL-60): 5.14 µM (inactive)
- GI50 (SF-539): 22.7 µM (inactive)
- GI50 (KM-20L2): 52.2 µM (inactive)
- GI50 (Malme-3M): 17.9 µM (inactive)
- GI50 (NCI-H522): 4.6 µM (inactive)
- GI50 (HCT-116): 15.7 µM (inactive)
